How the values were obtained:
[1] = target: T1, Methionine--tRNA ligase, cytoplasmic (Homo sapiens) (UniProt P56192); test: Inhibition of human methionyl-tRNA synthetase (fMetRS) at the concentration of 10 uM
T1 sequence (whole entry): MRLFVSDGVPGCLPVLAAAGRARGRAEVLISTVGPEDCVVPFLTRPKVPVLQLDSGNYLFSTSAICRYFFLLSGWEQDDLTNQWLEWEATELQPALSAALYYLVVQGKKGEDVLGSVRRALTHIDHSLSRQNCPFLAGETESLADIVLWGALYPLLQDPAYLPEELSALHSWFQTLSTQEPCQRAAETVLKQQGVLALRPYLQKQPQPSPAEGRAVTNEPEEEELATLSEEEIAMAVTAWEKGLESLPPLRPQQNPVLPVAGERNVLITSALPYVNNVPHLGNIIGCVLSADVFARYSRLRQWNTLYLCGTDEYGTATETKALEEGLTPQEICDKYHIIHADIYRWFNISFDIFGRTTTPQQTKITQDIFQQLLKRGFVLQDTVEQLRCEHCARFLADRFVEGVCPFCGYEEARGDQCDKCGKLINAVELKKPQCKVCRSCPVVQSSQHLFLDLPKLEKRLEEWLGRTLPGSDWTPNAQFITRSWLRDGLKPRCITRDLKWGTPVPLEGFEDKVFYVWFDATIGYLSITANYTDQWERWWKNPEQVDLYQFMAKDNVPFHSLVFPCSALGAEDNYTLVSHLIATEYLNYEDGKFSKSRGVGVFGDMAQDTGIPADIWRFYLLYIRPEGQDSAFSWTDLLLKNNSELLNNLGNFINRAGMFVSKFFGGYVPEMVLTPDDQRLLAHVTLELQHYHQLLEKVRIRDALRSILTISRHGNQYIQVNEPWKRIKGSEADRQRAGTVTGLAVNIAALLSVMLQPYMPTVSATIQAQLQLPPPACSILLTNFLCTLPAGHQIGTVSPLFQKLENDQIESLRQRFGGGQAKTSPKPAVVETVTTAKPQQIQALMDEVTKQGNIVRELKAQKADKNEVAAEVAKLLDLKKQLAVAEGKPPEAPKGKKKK

[2] = system: Methionine--tRNA ligase (Staphylococcus aureus); test: Inhibition of Staphylococcus aureus methionyl-tRNA synthetase (SaMetRS) at the concentration of 10 uM
[3] = system: Methionine--tRNA ligase (Enterococcus faecalis); test: Inhibition of Enterococci faecalis methionyl-tRNA synthetase (EfMetRS) at the concentration of 10 uM
[4] = target: T2, Methionine--tRNA ligase, cytoplasmic (Homo sapiens, UniProt P56192); test: Inhibition of human methionyl-tRNA synthetase (fMetRS)
T2 sequence (P56192 whole entry): T1 sequence (whole entry)

[5] = system: Methionine--tRNA ligase (Enterococcus faecalis); test: Inhibition of Enterococci faecalis methionyl-tRNA synthetase (EfMetRS); Inactive

Compound | inhibition [1] [%] | inhibition [2] [%] | inhibition [3] [%] | IC50 [4] [µM] | IC50 [5]
NC(=O)[C@H](Cc1ccc(O)cc1)NC(=O)[C@@H]1CCCN1/C=C1\N=C(c2ccc(Br)cc2)OC1=O | 5 |  |  |  | 
NC(=O)[C@H](Cc1ccc(O)cc1)NC(=O)C1CCCCN1/C=C1\N=C(c2ccc(Br)cc2)OC1=O (some centres undefined) | 19 | 55 | 7 |  | 
NC(=O)[C@H](Cc1ccc(O)cc1)NC(=O)C1CCN(/C=C2\N=C(c3ccc(Br)cc3)OC2=O)CC1 | 6 | 1 | 7 |  | 
CCC/C(=C1/N=C(c2ccc(Br)cc2)OC1=O)N1CCC[C@H]1C(=O)N[C@@H](Cc1ccc(O)cc1)C(N)=O |  |  |  | > 100 | 
CC/C(=C1/N=C(c2ccc(Br)cc2)OC1=O)N1CCC[C@H]1C(=O)N[C@@H](Cc1ccc(O)cc1)C(N)=O |  |  |  | > 100 | 
CCC/C(=C1/N=C(c2ccc(Br)cc2)OC1=O)N1CC[C@H]1C(=O)N[C@@H](Cc1ccc(O)cc1)C(N)=O |  |  |  | > 100 | 
NC(=O)[C@H](Cc1ccc(O)cc1)NC(=O)C1CCCN(/C=C2\N=C(c3ccc(Br)cc3)OC2=O)C1 (some centres undefined) | 23 | 39 |  |  | Not Active
NC(=O)[C@H](Cc1ccc(O)cc1)NC(=O)[C@@H]1CCN1/C=C1\N=C(c2ccc(Br)cc2)OC1=O |  |  |  | > 100 | 

Next, values leading:

inhibition [1] [%] | inhibition [2] [%] | inhibition [3] [%] | IC50 [4] [µM] | IC50 [5] | Compound
20 | 43 | 2 |  |  | NC(=O)[C@H](Cc1ccc(O)cc1)NC(=O)C1CCCN(/C=C2\N=C(c3ccc(Cl)cc3Cl)OC2=O)C1 (some centres undefined)
5 | 3 | 5 |  |  | NC(=O)[C@H](Cc1ccc(O)cc1)NC(=O)C1CCN(/C=C2\N=C(c3ccc(Cl)cc3Cl)OC2=O)CC1
88 | 73 | 60 |  |  | NC(=O)[C@H](Cc1ccc(O)cc1)NC(=O)C1CCCCN1/C=C1\N=C(c2ccc(Cl)cc2Cl)OC1=O (some centres undefined)
 |  |  | > 100 |  | NC(=O)[C@H](Cc1ccc(O)cc1)NC(=O)[C@@H]1CCCN1/C=C1\N=C(c2ccc(Cl)cc2Cl)OC1=O
